From ChEMBL document CHEMBL3585249, “Strongylophorines, meroditerpenoids from the marine sponge Petrosia corticata, function as proteasome inhibitors” (Bioorg Med Chem Lett, 2015)

Assay: Inhibition of human erythrocyte 20S proteasome assessed as reduction in chymotrypsin-like activity pre-incubated for 10 mins before addition of Suc-Leu-Leu-Val-Tyr-MCA fluorogenic substrate by fluorescence based assay

| SMILES | IC50 |
| --- | --- |
| CC1(C)CCC[C@]2(C)[C@H]3CC[C@]4(C)Oc5ccc(O)cc5C[C@H]4[C@]3(C)CC[C@@H]12 [Strongylophorin-22] | > 100 µM |
| C[C@@]12CC[C@@H]3[C@]4(CCC[C@@]3(C)C(=O)OC4)[C@H]1CC[C@]1(C)Oc3ccc(O)cc3C[C@@H]21 [strongylophorine-2] | > 100 µM |
| C[C@]12CCC[C@](C)(C(=O)O)[C@@H]1CC[C@]1(C)[C@@H]2CC[C@]2(C)Oc3ccc(O)cc3C[C@@H]12 [Strongylophorin-3] | 9.5 µM |
| CC(=O)[C@@]1(C)CCC[C@]2(C)[C@H]3CC[C@]4(C)Oc5ccc(O)cc5C[C@H]4[C@]3(C)CC[C@H]21 [strongylophorine-4] | 19 µM |

More lines, now with the values ahead:

| IC50 | SMILES |
| --- | --- |
| 3.6 µM | C[C@@]12CC[C@@H]3[C@]4(CCC[C@]3(C)C(O)OC4)[C@H]1CC[C@]1(C)Oc3ccc(O)cc3C[C@@H]21 (some centres undefined) |
| 2.1 µM | C[C@@]12CC[C@@H]3[C@]4(CCC[C@]3(C)C(O)OC4)[C@H]1CC[C@](C)(O)[C@H]2Cc1cc(O)ccc1O (some centres undefined) |
| 6.6 µM | CO[C@H]1OC[C@]23CCC[C@@]1(C)C2CC[C@]1(C)C3CC[C@]2(C)Oc3ccc(O)cc3CC12 (some centres undefined) |
| 8.4 µM | C[C@@]12CC[C@@H]3[C@]4(CCC[C@]3(C)C(=O)OC4)[C@H]1CC[C@](C)(O)[C@H]2Cc1cc(O)ccc1O [strongylophorine-8] |
| 9.3 µM | CCO[C@H]1OC[C@]23CCC[C@@]1(C)C2CC[C@]1(C)C3CC[C@]2(C)Oc3ccc(O)cc3CC12 (some centres undefined) |
